Article PMC6934184, “Selective DNA-PKcs inhibition extends the therapeutic index of localized radiotherapy and chemotherapy” (The Journal of Clinical Investigation, 2019)

Biological target: T1, PRKACA (PKA) (Homo sapiens, UniProt P17612)
T1 construct: purchased Thermo Fisher Scientific (Life Technologies) SelectScreen
Experiment: SelectScreen Z'LYTE
Type: biochemical
In short: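 SelectScreen broad panel; activity (Z'LYTE, Adapta) plus binding formats. ATP: Km app for CSF1R Z'LYTE; 10 for CAMK1 Adapta. Readout = % per kinase.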

For CN(C(=O)CN1CCOCC1)c1ccc2sc3c(-c4cccc5c(=O)cc(N6CC7CCC(C6)O7)oc45)cccc3c2c1 [NU5455], the inhibition at 1 µM was 14%.
